Source: PubChem BioAssay (NCI)
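All cell lines were grown in 96-well plates and treated with compound for 48 hours. At the TGI there is no net growth.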

Columns and labels:
Assay in all cases: NCI tumour cell line growth inhibition, 48 h
SF-539 CNS = tested on: SF-539 CNS
CCRF-CEM leukemia = tested on: CCRF-CEM leukemia
HL-60(TB) leukemia = tested on: HL-60(TB) leukemia
DLD-1 colon = tested on: DLD-1 colon
OVCAR-4 ovarian = tested on: OVCAR-4 ovarian
U251 CNS = tested on: U251 CNS
KM20L2 colon = tested on: KM20L2 colon
SN12C renal = tested on: SN12C renal
HCC-2998 colon = tested on: HCC-2998 colon
MALME-3M melanoma = tested on: MALME-3M melanoma
EKVX NSCLC = tested on: EKVX NSCLC
NCI-H23 lung = tested on: NCI-H23 lung
HCT-15 colon = tested on: HCT-15 colon
UACC-257 melanoma = tested on: UACC-257 melanoma
SF-295 CNS = tested on: SF-295 CNS
SNB-75 CNS = tested on: SNB-75 CNS
CAKI-1 renal = tested on: CAKI-1 renal
LXFL 529 NSCLC = tested on: LXFL 529 NSCLC
K-562 leukemia = tested on: K-562 leukemia
SNB-78 CNS = tested on: SNB-78 CNS
KM12 colon = tested on: KM12 colon
786-0 renal = tested on: 786-0 renal
SK-MEL-5 melanoma = tested on: SK-MEL-5 melanoma
HOP-62 NSCLC = tested on: HOP-62 NSCLC
M14 melanoma = tested on: M14 melanoma
A498 renal = tested on: A498 renal
SW-620 colon = tested on: SW-620 colon
SK-OV-3 ovarian = tested on: SK-OV-3 ovarian
TK-10 renal = tested on: TK-10 renal
OVCAR-5 ovarian = tested on: OVCAR-5 ovarian
ACHN renal = tested on: ACHN renal
DMS 273 small cell lung = tested on: DMS 273 small cell lung
XF 498 CNS = tested on: XF 498 CNS
RXF-631 renal = tested on: RXF-631 renal
RPMI-8226 leukemia = tested on: RPMI-8226 leukemia
RXF 393 renal = tested on: RXF 393 renal
MOLT-4 leukemia = tested on: MOLT-4 leukemia
DMS 114 small cell lung = tested on: DMS 114 small cell lung
IGROV1 ovarian = tested on: IGROV1 ovarian
OVCAR-3 ovarian = tested on: OVCAR-3 ovarian
OVCAR-8 ovarian = tested on: OVCAR-8 ovarian
HT29 colon = tested on: HT29 colon
M19-MEL melanoma = tested on: M19-MEL melanoma
A549 NSCLC = tested on: A549 NSCLC
SK-MEL-2 melanoma = tested on: SK-MEL-2 melanoma
SK-MEL-28 melanoma = tested on: SK-MEL-28 melanoma
NCI-H226 lung = tested on: NCI-H226 lung
UACC-62 melanoma = tested on: UACC-62 melanoma
UO-31 renal = tested on: UO-31 renal
NCI-H460 lung = tested on: NCI-H460 lung
HCT-116 colon = tested on: HCT-116 colon
SR leukemia = tested on: SR leukemia
LOX IMVI melanoma = tested on: LOX IMVI melanoma
SF-268 CNS = tested on: SF-268 CNS
NCI-H522 lung = tested on: NCI-H522 lung
COLO 205 colon = tested on: COLO 205 colon
SNB-19 CNS = tested on: SNB-19 CNS
P388 leukemia = tested on: P388 leukemia
HOP-18 NSCLC = tested on: HOP-18 NSCLC
NCI/ADR-RES ovarian = tested on: NCI/ADR-RES ovarian
MCF7 breast = tested on: MCF7 breast
SN12K1 renal = tested on: SN12K1 renal
P388/ADR leukemia = tested on: P388/ADR leukemia
HOP-92 NSCLC = tested on: HOP-92 NSCLC

Measured: TGI

COC(=O)C1=C2CCC(=O)[C@@]2(C)C(OC(C)=O)C=CC1 (stereo not given in full)
92.9 µM: XF 498 CNS
> 100 µM: SF-539 CNS | CCRF-CEM leukemia | HL-60(TB) leukemia | DLD-1 colon | OVCAR-4 ovarian | U251 CNS | KM20L2 colon | SN12C renal | HCC-2998 colon | MALME-3M melanoma | EKVX NSCLC | NCI-H23 lung | UACC-257 melanoma | SF-295 CNS | SNB-75 CNS | CAKI-1 renal | LXFL 529 NSCLC | K-562 leukemia | SNB-78 CNS | KM12 colon | 786-0 renal | SK-MEL-5 melanoma | HOP-62 NSCLC | M14 melanoma | A498 renal | SW-620 colon | SK-OV-3 ovarian | TK-10 renal | OVCAR-5 ovarian | ACHN renal | DMS 273 small cell lung | RPMI-8226 leukemia | RXF 393 renal | MOLT-4 leukemia | DMS 114 small cell lung | IGROV1 ovarian | OVCAR-3 ovarian | OVCAR-8 ovarian | HT29 colon | M19-MEL melanoma | A549 NSCLC | SK-MEL-2 melanoma | SK-MEL-28 melanoma | NCI-H226 lung | UACC-62 melanoma | UO-31 renal | NCI-H460 lung
54 µM: RXF-631 renal
87.3 µM: HCT-15 colon
69.6 µM: HCT-116 colon

O=C(O)/C=C/n1c2ccccc2c(=O)c2ccccc21
> 100 µM: SF-539 CNS | CCRF-CEM leukemia | HL-60(TB) leukemia | DLD-1 colon | OVCAR-4 ovarian | U251 CNS | KM20L2 colon | SN12C renal | HCC-2998 colon | MALME-3M melanoma | EKVX NSCLC | NCI-H23 lung | SR leukemia | HCT-15 colon | UACC-257 melanoma | SF-295 CNS | CAKI-1 renal | LOX IMVI melanoma | K-562 leukemia | SNB-78 CNS | SF-268 CNS | KM12 colon | 786-0 renal | NCI-H522 lung | HOP-62 NSCLC | M14 melanoma | A498 renal | SW-620 colon | OVCAR-5 ovarian | ACHN renal | DMS 273 small cell lung | COLO 205 colon | XF 498 CNS | RXF-631 renal | RPMI-8226 leukemia | RXF 393 renal | MOLT-4 leukemia | DMS 114 small cell lung | IGROV1 ovarian | OVCAR-3 ovarian | OVCAR-8 ovarian | HT29 colon | M19-MEL melanoma | A549 NSCLC | SK-MEL-2 melanoma | SK-MEL-28 melanoma | NCI-H226 lung | UACC-62 melanoma | UO-31 renal | NCI-H460 lung | HCT-116 colon | SNB-19 CNS

O=C(O)CCCCCCC[C@@H]1S[C@H]1CCCCCCO
> 94.4 µM: HOP-92 NSCLC
> 100 µM: SF-539 CNS | CCRF-CEM leukemia | HL-60(TB) leukemia | P388 leukemia | DLD-1 colon | OVCAR-4 ovarian | U251 CNS | HOP-18 NSCLC | KM20L2 colon | SN12C renal | HCC-2998 colon | MALME-3M melanoma | EKVX NSCLC | NCI-H23 lung | HCT-15 colon | UACC-257 melanoma | SF-295 CNS | SNB-75 CNS | CAKI-1 renal | LOX IMVI melanoma | K-562 leukemia | NCI/ADR-RES ovarian | SNB-78 CNS | SF-268 CNS | KM12 colon | NCI-H522 lung | SK-MEL-5 melanoma | HOP-62 NSCLC | A498 renal | SW-620 colon | MCF7 breast | SK-OV-3 ovarian | OVCAR-5 ovarian | DMS 273 small cell lung | COLO 205 colon | XF 498 CNS | SN12K1 renal | RPMI-8226 leukemia | RXF 393 renal | MOLT-4 leukemia | DMS 114 small cell lung | IGROV1 ovarian | OVCAR-3 ovarian | OVCAR-8 ovarian | HT29 colon | M19-MEL melanoma | P388/ADR leukemia | A549 NSCLC | SK-MEL-2 melanoma | SK-MEL-28 melanoma | NCI-H226 lung | UACC-62 melanoma | UO-31 renal | NCI-H460 lung | HCT-116 colon | SNB-19 CNS
